System: TERT protein
Test: Fluorescence polarization binding assay (inhibitory activity of selected Table 9 compounds)
Design: species or system Tribolium castaneum
Conditions: TERT-Chim21m complex 250 nM, cyanine 5-dCTP 10 nM, footnote: observed value corresponds to 50% of the actual inhibition value; for Inhibition at 5 μM (%)*: compound 5 μM; for Inhibition at 50 μM (%)*: compound 50 μM
Description: The TERT protein was expressed and purified as described herein. Protein was concentrated to 4.72 mg ml-l using an AMICON 30K cutoff filter (Millipore) and stored at −80° C. for binding assays.
For the binding assay, TERT protein was diluted to a 500 nM concentration in a solution of 50 mM Tris-HCl, pH 7.5, 200 mM KCl, and 20% glycerol. A 1.2-fold molar excess of the Chim21m RNA-DNA hybrid (Integrated DNA Technologies), containing the template for telomere extension (5′-rCrUrG rArCrC rUrGrA rCTT CGG TCA GGT-3′; SEQ ID NO:19), was then added to these samples and kept on ice. The cyanine 5-dCTP (Perkin Elmer) for the binding study was made up to a 20 nM concentration in sterile, RNase, DNase free water with […].
Compound screens were carried out as 30.5 μl reactions in a 384-well, round bottom plate (Thermo). Fifteen μl of TERT-Chim21m complex was first added to each well. Then 0.5 μl of library compound (ChemBridge) was added to this solution. Finally, 15 μl of the nucleotide-MgCl2 sample was added, and the solution mixed to provide final concentrations of 250 nM protein-nucleic acid, 10 nM cyanine 5-dCTP, and […]. Final compound concentrations were 50 μM and 5 μM. All additions were completed using a Janus 96/384 Modular Dispensing Tool (Perkin Elmer), performed in triplicate, and equilibrated for 40 minutes. Fluorescence polarization was measured at λex=620 nm and λem=688 nm on an EnVision Xcite Multilabel plate reader (Perkin Elmer). Polarization was calculated using the standard equation: P=(V−H)/(V+H), where P denotes polarization, V denotes vertical emission intensity, and H denotes horizontal emission intensity.

## CC(C(=O)Nn1cnnc1)N1C(=O)c2ccccc2C1=O (stereo not drawn) [2-(1,3-dioxo-1,3-dihydro-2H-isoindol-2-yl)-N-4H-1,2,4-triazol-4-ylpropanamide]
  Inhibition at 5 μM (%)*: 4.74%
  Inhibition at 50 μM (%)*: 27.38%

## CCOc1cc(CNCc2ccco2)cc(Br)c1OCC(N)=O.Cl [2-(2-bromo-6-ethoxy-4-{[(2-furylmethyl)amino]methyl}phenoxy)acetamide hydrochloride]
  Inhibition at 5 μM (%)*: 16.14%
  Inhibition at 50 μM (%)*: 30.92%

## COc1cc(CNCCc2ccccc2)cc(Br)c1OCC(N)=O [2-(2-bromo-6-methoxy-4-{[(2-phenylethyl)amino]methyl}phenoxy)acetamide]
  Inhibition at 5 μM (%)*: 12.21%
  Inhibition at 50 μM (%)*: 27.65%

## CCOc1cc(CNCc2cccs2)cc(Cl)c1OCC(N)=O.Cl [2-(2-chloro-6-ethoxy-4-{[(2-thienylmethyl)amino]methyl}phenoxy)acetamide hydrochloride]
  Inhibition at 5 μM (%)*: 17.68%
  Inhibition at 50 μM (%)*: 49.10%

## CCOc1cc(CNCc2cccnc2)cc(Cl)c1OCC(N)=O.Cl [2-(2-chloro-6-ethoxy-4-{[(3-pyridinylmethyl)amino]methyl}phenoxy)acetamide hydrochloride]
  Inhibition at 5 μM (%)*: 14.87%
  Inhibition at 50 μM (%)*: 38.78%

## COc1cc(CNc2ccc3[nH]c(=O)[nH]c3c2)cc(Cl)c1OCC(N)=O [2-(2-chloro-6-methoxy-4-{[(2-oxo-2,3-dihydro-1H-benzimidazol-5-yl)amino]methyl}phenoxy)acetamide]
  Inhibition at 5 μM (%)*: 15.94%
  Inhibition at 50 μM (%)*: 29.33%

## COc1cc(CNCc2cccs2)cc(Cl)c1OCC(N)=O.Cl [2-(2-chloro-6-methoxy-4-{[(2-thienylmethyl)amino]methyl}phenoxy)acetamide hydrochloride]
  Inhibition at 5 μM (%)*: 10.94%
  Inhibition at 50 μM (%)*: 41.26%

## COc1cc(CNCc2ccncc2)cc(Cl)c1OCC(N)=O.Cl [2-(2-chloro-6-methoxy-4-{[(4-pyridinylmethyl)amino]methyl}phenoxy)acetamide hydrochloride]
  Inhibition at 5 μM (%)*: 23.05%
  Inhibition at 50 μM (%)*: 45.56%

## COc1cc(CNCCN2CCOCC2)cc(Br)c1OCC(N)=O.Cl.Cl [2-[2-bromo-6-methoxy-4-({[2-(4-morpholinyl)ethyl]amino}methyl)phenoxy]acetamide dihydrochloride]
  Inhibition at 5 μM (%)*: 18.27%
  Inhibition at 50 μM (%)*: 30.23%

## Cc1ccc(C(=O)Nn2cnnc2)c(Cl)c1 [2-chloro-4-methyl-N-4H-1,2,4-triazol-4-ylbenzamide]
  Inhibition at 5 μM (%)*: 10.94%
  Inhibition at 50 μM (%)*: 29.35%

## CNCc1cc(Cl)c(OCC(N)=O)c(OC)c1.Cl [2-{2-chloro-6-methoxy-4-[(methylamino)methyl]phenoxy}acetamide hydrochloride]
  Inhibition at 5 μM (%)*: 17.00%
  Inhibition at 50 μM (%)*: 31.30%

## COc1cc(CNC2C3CC4CC(C3)CC2C4)cc(Cl)c1OCC(N)=O (stereo not drawn) [2-{4-[(2-adamantylamino)methyl]-2-chloro-6-methoxyphenoxy}acetamide]
  Inhibition at 5 μM (%)*: 13.73%
  Inhibition at 50 μM (%)*: 35.18%

## COc1cc(CNCc2ccccc2)cc(Cl)c1OCC(N)=O.Cl [2-{4-[(benzylamino)methyl]-2-chloro-6-methoxyphenoxy}acetamide hydrochloride]
  Inhibition at 5 μM (%)*: 4.96%
  Inhibition at 50 μM (%)*: 29.96%

## NC(=O)CCN1C(=O)c2cccc3cccc(c23)C1=O [3-(1,3-dioxo-1H-benzo[de]isoquinolin-2(3H)-yl)propanamide]
  Inhibition at 5 μM (%)*: 18.11%
  Inhibition at 50 μM (%)*: 36.58%

## O=C(Nn1cnnc1)c1cc(Br)ccc1Cl [5-bromo-2-chloro-N-4H-1,2,4-triazol-4-ylbenzamide]
  Inhibition at 5 μM (%)*: 11.97%
  Inhibition at 50 μM (%)*: 30.04%

## CC(O)CNC(=O)C(=O)Nc1ccc2c(c1)OCO2 (stereo not drawn) [N-1,3-benzodioxol-5-yl-N′-(2-hydroxypropyl)ethanediamide]
  Inhibition at 5 μM (%)*: 6.67%
  Inhibition at 50 μM (%)*: 29.71%

## O=C(NCCCO)C1CCCN(S(=O)(=O)c2ccc3ccccc3c2)C1 (stereo not drawn) [N-(3-hydroxypropyl)-1-(2-naphthylsulfonyl)-3-piperidinecarboxamide]
  Inhibition at 5 μM (%)*: 13.44%
  Inhibition at 50 μM (%)*: 30.42%

## CCOC(=O)c1c(NC(=O)/C=C/C(N)=O)sc(C)c1C [ethyl 2-[(4-amino-4-oxo-2-butenoyl)amino]-4,5-dimethyl-3-thiophenecarboxylate]
  Inhibition at 5 μM (%)*: 19.23%
  Inhibition at 50 μM (%)*: 39.41%

Source: patent US9234230B2, “Screening method and compounds for modulating telomerase activity” (The Wistar Institute, priority 2010, dated 2016)
